From paper PMC8199124, “Design, Synthesis and In-Vitro Biological Evaluation of Antofine and Tylophorine Prodrugs as Hypoxia-Targeted Anticancer Agents” (Molecules, 2021)
Read-outs that look alike come from different tables or passages of the source. Values belong to the compound of their own block, whether it stands above or below them.

Experiments:
RKO = assay: Cytotoxicity (MTT) under normoxia, RKO; type: cell-based; conditions: Homo sapiens, read-out: IC50 RKO
Protocol: (§1) The cytotoxicity of the compounds 5a–c and their parent alkaloids was evaluated by the 3-[4,5-dimethylthiazole-2-yl]-2,5-diphenyltetrazolium bromide (MTT) assay against 5 cancerous and 2 non-cancerous cell lines (Table 4).
(§2) The eight cell lines HEK293 (Human embryonic kidney 293), CHO-K1 (Chinese hamster ovary K1), MCF-7 cells (Human breast adenocarcinoma), HCT116 (human colorectal carcinoma), RKO (Human rectal carcinoma), SW480 (human colorectal carcinoma), H460 (Human lung cancer), and MRC5 (Normal human foetal lung fibroblast), were obtained from the ATCC. The cell lines were routinely grown in alpha minimum essential medium (α-MEM) containing 5% foetal calf serum (FCS). The appropriate number of cells (HCT116 = 400 cells/well, H460 cells = 600 cells/well) were seeded into 96-well plates under normoxic or hypoxic conditions. Cells were plated in 100 µL α-MEM containing 10% FCS, 10mM D-Glucose and 0.2mM 2′-deoxycytidine. After incubation for 2 h, the compounds were added at the appropriate concentration and incubated for further 4 h. The cells were then washed three times with drug-free α-MEM (containing 5% FCS and pen/strep). The plates were then incubated for 5 days under normoxic conditions. The cells were stained with sulphorhodamine B to measure total cells. The IC50 was determined by interpolation as the compound concentration reducing staining to 50% of controls on the same plate.

HCT116 [1] = assay: Cytotoxicity under normoxia and hypoxia (anaerobic chamber, sulphorhodamine B), HCT116; type: cell-based, human; conditions: for IC50: 4 h exposure, 5 days growth
Protocol: (§3) We also checked if the designed prodrugs were able to liberate the active alkaloids in hypoxic tumors by testing them under hypoxic conditions using an anaerobic chamber. The three prodrugs 5a–c and their parent alkaloids as well as the reference compounds PR-104A, the parent alcohol form of the phosphate pre-prodrug PR-104, and evofosfamide were tested using the HCT116 and H460 cell lines under both normoxic and hypoxic conditions (Table 5). The prodrugs were much less cytotoxic than the parent drugs, in agreement with our observations using the other cell lines described above (Figure 6).
(§4) The extent to which a prodrug is deactivated relative to its parent drug under normoxic conditions is defined as the Deactivation Ratio (DR). The DR can be simply calculated as DR = IC50 (prodrug)/IC50 (parent drug).
(§5) The efficacy of prodrug activation under hypoxic conditions can be expressed by the Hypoxia Cytotoxicity Ratio (HCR), which can be calculated for a given prodrug as: HCR = normoxic IC50/hypoxic IC50.
as §2

HCT116 [2] = assay: Cytotoxicity (MTT) under normoxia, HCT116; type: cell-based; conditions: Homo sapiens, HCT-116, read-out: IC50 HCT116
Protocol: as §1, §2

MRC5 = assay: Cytotoxicity (MTT) under normoxia, MRC5; type: cell-based; conditions: Homo sapiens, MRC5, read-out: IC50 MRC5
Protocol: as §1, §2

H460 = assay: Cytotoxicity under normoxia and hypoxia (anaerobic chamber, sulphorhodamine B), H460; type: cell-based, human; conditions: for IC50: 4 h exposure, 5 days growth
Protocol: as §3, §4, §5, §2

SW480 = assay: Cytotoxicity (MTT) under normoxia, SW480; type: cell-based; conditions: Homo sapiens, SW480, read-out: IC50 SW480
Protocol: as §1, §2

MCF7 = assay: Cytotoxicity (MTT) under normoxia, MCF7; type: cell-based; conditions: Homo sapiens, MCF7, read-out: IC50 MCF7
Protocol: as §1, §2

[3] = BBB-Parallel Artificial Membrane Permeability Assay (BBB-PAMPA); type: in vitro ADME; conditions: mean ± SE
Protocol: The physicochemical properties of the new compounds were evaluated (Table 1). […] Consequently, these derivatives lost their BBB penetrability, as predicted by the BBB-Parallel Artificial Membrane Permeability Assay (BBB-PAMPA), whereas their parent alkaloids had free passage through the BBB.
Water solubility, logD, and PAMPA-BBB were evaluated using the protocols we previously described.

[4] = Human plasma stability test; type: in vitro ADME; conditions: 37 °C, up to 24 h, read-out: t1/2 (Human Plasma) (converted)
Protocol: (§6) Incubations were carried out in 6 aliquots of 70 μL each in duplicates. […] The reactions were stopped by adding 350 μL of acetonitrile with subsequent plasma proteins sedimentation by centrifuging at 5500 rpm for 5 min. Supernatants were analyzed by LC-MS using Shimadzu VP HPLC system including vacuum degasser, gradient pumps, reverse phase column, column oven and autosampler. The HPLC system was coupled with tandem mass spectrometer API 3000 (PE Sciex, Foster City, CA, USA). Both the positive and negative ion modes of the TurboIonSpray ion source were used. The acquisition and analysis of the data were performed using Analyst 1.5.2 software (PE Sciex, API 3000 mass spectrometer, Foster City, CA, USA). The percentage of the test compounds remaining after incubation in plasma and their half-lives (T1/2) were calculated.

[5] = Mouse plasma stability test; type: in vitro ADME; conditions: 37 °C, up to 24 h, read-out: t1/2 (Mouse Plasma) (converted)
Protocol: as §6

[6] = HCT116, HCR = normoxic IC50/hypoxic IC50
[7] = Homo sapiens, HCT-116, HCT116, hypoxia, read-out: IC50 (Hypoxia)
[8] = Homo sapiens, HCT-116, HCT116, normoxia, read-out: IC50 (Normoxia)
[9] = H460, HCR = normoxic IC50/hypoxic IC50
[10] = Homo sapiens, NCI-H460, H460, hypoxia, read-out: IC50 (Hypoxia)
[11] = Homo sapiens, NCI-H460, H460, normoxia, read-out: IC50 (Normoxia)

Structure (SMILES): COc1cc2c3c(c4cc(OC)c(OC)cc4c2cc1OC)CN1CCC[C@@H]1C3 [(R)-Tylophorine]
- IC50 (RKO): 0.338 ± 0.061 µM
- HCR (Hypoxia Cytotoxicity Ratio) (HCT116 [1]; [6]): 0.6
- IC50 (HCT116 [1]; [7]): 56.4 ± 35 nM
- IC50 (HCT116 [1]; [8]): 1710 ± 965 nM
- IC50 (HCT116 [2]): 0.44 ± 0.036 µM
- IC50 (MRC5): 95 ± 6 nM
- HCR (Hypoxia Cytotoxicity Ratio) (H460; [9]): 1.1
- IC50 (H460; [10]): 161 ± 77 nM
- IC50 (H460; [11]): 175 ± 78 nM
- IC50 (SW480): 1.15 ± 0.244 µM
- IC50 (MCF7): 0.101 ± 0.088 µM

- Permeability (Papp) [3]: −5.4 ± 0.13 Log [10^−6 cm/s]
Structure (SMILES): CN(C)CCCN1c2ccccc2Sc2ccc(Cl)cc21 [Chlorpromazine]

Structure (SMILES): CS(=O)(=O)OCCN(CCBr)c1c(C(=O)NCCO)cc([N+](=O)[O-])cc1[N+](=O)[O-] [PR-104A]
- IC50 (HCT116 [1]; HCT116, hypoxia, read-out: IC50 (Hypoxia)): 861 ± 122 nM
- IC50 (HCT116 [1]; HCT116, normoxia, read-out: IC50 (Normoxia)): 16500 nM
- HCR (Hypoxia Cytotoxicity Ratio) (HCT116 [1]; [6]): 10.5
- IC50 (H460; H460, hypoxia, read-out: IC50 (Hypoxia)): 533 ± 47 nM
- IC50 (H460; H460, normoxia, read-out: IC50 (Normoxia)): 1340 ± 386 nM
- HCR (Hypoxia Cytotoxicity Ratio) (H460; [9]): 2.5

- Permeability (Papp) [3]: −5.1 ± 0.12 Log [10^−6 cm/s]
Structure (SMILES): CN1CCN(C2=Nc3cc(Cl)ccc3Nc3ccccc32)CC1 [Clozapine]

- half-life at 1 μM [4]: < 180 min
- half-life at 1 μM [5]: < 180 min
Structure (SMILES): CC(C)[N+](C)(CCOC(=O)C1c2ccccc2Oc2ccccc21)C(C)C [Propantheline]

Structure (SMILES): COc1cc2c3c(c4cc(OC)c(OC)cc4c2cc1OC)C[N+]1(Cc2c([N+](=O)[O-])ncn2C)CCC[C@@H]1C3.[Br-] (stereo partly drawn) [Compound 5c, (13aR)-2,3,6,7-tetramethoxy-10-((1-methyl-4-nitro-1H-imidazol-5-yl)methyl)-10,11,12,13,13a,14-hexahydro-9H-dibenzo[f,h]pyrrolo[1,2-b]isoquinolin-10-ium bromide]
- IC50 (RKO): 8.82 ± 3.08 µM
- HCR (Hypoxia Cytotoxicity Ratio) (HCT116 [1]): 1.5
- DR (Deactivation Ratio) (HCT116 [1]; HCT116, normoxia, DR = IC50 (prodrug)/IC50 (parent drug)): 128
- IC50 (HCT116 [1]; [7]): 3020 ± 656 nM
- IC50 (HCT116 [1]; [8]): 9060 ± 7590 nM
- IC50 (HCT116 [2]): 9.02 ± 1.13 µM
- IC50 (MRC5): 3940 ± 127 nM
- HCR (Hypoxia Cytotoxicity Ratio) (H460): 7.8
- DR (Deactivation Ratio) (H460; H460, normoxia, DR = IC50 (prodrug)/IC50 (parent drug)): 293
- IC50 (H460; [10]): 6500 ± 1810 nM
- IC50 (H460; [11]): 51000 nM
- IC50 (SW480): 9.86 ± 1.69 µM
- melting point: 185 to 187 °C
- IC50 (MCF7): 8.05 ± 0.343 µM

Structure (SMILES): Cn1c(COP(=O)(NCCBr)NCCBr)cnc1[N+](=O)[O-] [Evofosfamide]
- HCR (Hypoxia Cytotoxicity Ratio) (HCT116 [1]; [6]): 85
- IC50 (HCT116 [1]; [7]): 20.1 ± 3 nM
- IC50 (HCT116 [1]; [8]): 23.9 ± 7 nM
- HCR (Hypoxia Cytotoxicity Ratio) (H460; [9]): 251
- IC50 (H460; [10]): 17.2 ± 1 nM
- IC50 (H460; [11]): 4320 ± 1930 nM
